{
  "source": "paper PMC8287028",
  "about": "(Frontiers in Veterinary Science, 2021)",
  "key": {"[1]": {"test": "Pharmacokinetics after oral apixaban capsules, plasma concentrations by LC/MS", "conditions": "for AUC: AUC (area-under-the-curve); for Cmax: CMax (peak concentration); for bioavailability: F% (fraction of oral dose absorbed, bioavailability); for half-life: K10 T½ (apparent elimination half-life); for Vd/F: V/F (volume of distribution per fraction absorbed)", "excerpt": "Additionally, drug metabolism might be different in beagles compared with mixed-breed dogs ([33], [34]). […] The study was approved by the Institutional Animal Care and Use Committee (IACUC) at Cornell University College of Veterinary Medicine (Protocol #2019-0099). All dogs were housed at Cornell University and cared for by licensed veterinarians and technicians according to established protocols. All dogs were permanently adopted into private homes after study completion.\nTo achieve uniform dosing, custom IV (2.5 mg/ml) and oral capsule formulations were created. The protocol for generation of the IV formulation was as previously published ([25]), and all procedures were performed in a laminar flow hood under strict aseptic conditions. […] After vortexing, the formulation was aseptically filtered (Corning 0.22 μm cellulose acetate filter, Millipore-Sigma) then drawn into 10 ml syringes (BD, Franklin Lakes, NJ). The IV formulation was prepared 1 h before administration and stored in the dark at 20-25°C. […] All injection durations were identical. Separately, all dogs received bodyweight appropriate capsule size to provide ~0.2 mg/kg PO once. Capsules were administered without food and witnessed to be ingested. A minimum washout period of 2 weeks elapsed between initial PO administration and subsequent IV administration. The maximum duration of capsule storage prior to administration was 76 days.\nOn the days of drug administration, 5 Fr × 25 cm trilumen wire-guided catheters (Mila International, Erlanger, KY) were aseptically placed in external jugular veins by modified-Seldinger technique to facilitate atraumatic, repeat blood sample collection. Dogs were sedated with IV butorphanol 0.2 mg/kg and dexmedetomidine 5 μg/kg (Zoetis, Parsippany, NJ) to facilitate catheter placement. Jugular catheters were secured using 3-0 nylon sutures, protected with sterile bandages, and flushed with 0.9% saline (no heparin was used). Dogs were allowed to recover fully from sedation prior to drug administration. […] Catheters were flushed with 0.9% saline, without heparin. Samples were also drawn into K2-EDTA and no-additive tubes at baseline and 24 h post-administration for complete blood counts and serum biochemistry profiles. Dogs were closely monitored for adverse reactions throughout the sample collection period. […] After each sample collection, one citrate anticoagulated whole blood sample was analyzed using thromboelastography (TEG), while the second citrate sample was centrifuged (1,370 g, 10 min, 20°C), the plasma separated, split into two aliquots and then frozen at −80°C pending batch analyses.\nIn brief, proteins in the sample were initially precipitated by combining 100 μl of plasma sample with 200 μl of 0.1 M ZnSO4 solution and 700 μl of isotope standard stock solution, mixing in a vortex device for 5 s followed by centrifugation (14,000 g, 5 min, RT). The supernatant was added to glass autosampler vials and an aliquot injected into the liquid chromatography 2D UPLC system (Waters Acquity UPLC H-class with 2D Technology System). Sample extraction was performed using a 2.1 × 30 mm reverse phase cartridge (column 1, Waters, XBridge C8, 10 μm) followed by an analytical separation on a 2.1 × 50 mm reverse phase column (column 2, Waters, Acquity UPLC BEH C18, 1.7 μm) and an elution with a linear gradient using water containing 0.1% formic acid and 2 mmol/L ammonium acetate and methanol containing 0.1% formic acid and 2 mmol/L ammonium acetate. […] A 10-point calibration curve was generated with concentrations ranging from 1 to 1,000 ng/ml, with three quality control samples at each of three concentrations (low, 2.5 ng/ml; medium, 50 ng/ml; high, 500 ng/ml).\nWhere C is the plasma drug concentration, V is the volume of distribution, D is the dose, K10 is the first order elimination rate constant, and T is time. Secondary parameters included area-under-the curve (AUC), systemic clearance (CL), and half-life."}, "[2]": {"system": "activated partial thromboplastin time", "test": "Activated partial thromboplastin time (aPTT) on citrated plasma of dosed dogs", "type": "in vivo, dog", "procedure": "Coagulation assays were performed on platelet-poor, citrated plasma samples by a reference laboratory (Comparative Coagulation Laboratory, Animal Health Diagnostic Center, Ithaca, NY). […] The assay is configured with a bovine activated Factor X reagent that is added in excess to the test plasma and a chromogenic substrate of Factor Xa (STA Liquid anti-Xa, Diagnostica Stago). Residual, uninhibited Factor Xa cleaves the chromogenic substrate such that the inverse of the color change in the reaction mixture is proportional to the drug concentration in the test plasma. […] Assay controls, consisting of human plasma spiked with apixaban (STA Apixaban Controls, Diagnostica Stago) were analyzed before each batch of test samples to confirm assay performance. The apixaban levels in calibrators and controls are defined by the manufacturer from an internal reference assayed by HPLC-MS. […] A mechanical endpoint method (STA Compact, Diagnostica Stago) and human coagulation reagents were used to measure prothrombin time (Thromboplastin LI, Helena Diagnostics, Beaumont, TX) and activated partial thromboplastin time (Dade Actin FS, Dade Behring, Newark, DE). […]"}, "[3]": {"conditions": "both, mixed-breed, dog, plasma, po, 0.2 mg/kg, dogs, mean dose 0.2 mg/kg, geometric mean, n = 5"}, "[4]": {"conditions": "both, mixed-breed, dog, plasma, po, 0.2 mg/kg, dogs, mean dose 0.2 mg/kg, mean, n = 5"}, "[5]": {"conditions": "dogs, PO, mean dose 0.2 mg/kg, model fit, individual dogs (Dog 1-5), 0.2 mg/kg"}, "[6]": {"conditions": "dogs, PO, mean dose 0.2 mg/kg, geometric mean, n = 5"}, "[7]": {"conditions": "dogs, PO, mean dose 0.2 mg/kg, individual dogs (Dog 1-5), 0.2 mg/kg"}, "[8]": {"conditions": "dogs, PO, mean dose 0.2 mg/kg, mean, n = 5"}},
  "note": "“And” between values parts separate entries of the source, which are not always exact repeats. Equal values may be shown once. “Also recorded” adds a separate entry of the source.",
  "data": [
    {"smiles": "COc1ccc(-n2nc(C(N)=O)c3c2C(=O)N(c2ccc(N4CCCCC4=O)cc2)CC3)cc1", "note": "[apixaban]", "values": [
      {"measurement": "mean maximum observed plasma concentration (CMax)", "setting": "[1]; both, mixed-breed, dog, in vivo, po", "value": "176 ± 126", "unit": "ng/mL"},
      {"measurement": "CL/F", "setting": "[1]; both, mixed-breed, dog, in vivo, po, 0.2 mg/kg", "value": 0.113, "unit": "L/h/kg"},
      {"measurement": "AUC", "setting": "[1]; [3]", "value": 1.77, "unit": "µg·h/mL"},
      {"measurement": "AUC", "setting": "[1]; [4]", "value": 1.95, "unit": "µg·h/mL"},
      {"measurement": "CL/F", "setting": "[1]; both, mixed-breed, dog, plasma, po, 0.2 mg/kg, CL/F (systemic clearance per fraction absorbed), dogs, mean dose 0.2 mg/kg, mean, n = 5", "value": 0.125, "unit": "L/h/kg"},
      {"measurement": "Cmax", "setting": "[1]; both, mixed-breed, dog, plasma, po, 0.2 mg/kg, dogs, mean dose 0.2 mg/kg, model fit, geometric mean, n = 5", "value": 0.196, "unit": "µg/mL"},
      {"measurement": "Cmax", "setting": "[1]; both, mixed-breed, dog, plasma, po, 0.2 mg/kg, dogs, mean dose 0.2 mg/kg, model fit, mean, n = 5", "value": 0.223, "unit": "µg/mL"},
      {"measurement": "bioavailability", "setting": "[1]; both, mixed-breed, dog, plasma, po, 0.2 mg/kg, dogs, PO 0.2 mg/kg vs IV 0.18 mg/kg, geometric mean, n = 5", "value": 24.1, "unit": "%"},
      {"measurement": "bioavailability", "setting": "[1]; both, mixed-breed, dog, plasma, po, 0.2 mg/kg, dogs, PO 0.2 mg/kg vs IV 0.18 mg/kg, mean, n = 5", "value": 28.4, "unit": "%"},
      {"measurement": "half-life", "setting": "[1]; [3]", "value": 3, "unit": "h"},
      {"measurement": "half-life", "setting": "[1]; both, mixed-breed, dog, plasma, po, 0.2 mg/kg, dogs, mean dose 0.2 mg/kg, individual dogs (Dog 1-5)", "value": 3.8, "unit": "h"},
      {"measurement": "half-life", "setting": "[1]; [4]", "value": 3.1, "unit": "h"},
      {"measurement": "TMax", "setting": "[1]; both, mixed-breed, dog, plasma, po, 0.2 mg/kg, TMax, dogs, mean dose 0.2 mg/kg, model fit, geometric mean, n = 5", "value": 5, "unit": "h"},
      {"measurement": "TMax", "setting": "[1]; both, mixed-breed, dog, plasma, po, 0.2 mg/kg, TMax, dogs, mean dose 0.2 mg/kg, model fit, individual dogs (Dog 1-5)", "value": 3.5, "unit": "h"},
      {"measurement": "Vd/F", "setting": "[1]; [3]", "value": 0.492, "unit": "L/kg"},
      {"measurement": "Vd/F", "setting": "[1]; [4]", "value": 0.534, "unit": "L/kg"},
      {"measurement": "F% (fraction of oral dose absorbed, bioavailability)", "setting": "[1]; dogs, PO 0.2 mg/kg vs IV 0.18 mg/kg, individual dogs (Dog 1-5)", "value": "35.0% and 51.5% and 15.0% and 10.0% and 30.4%"},
      {"measurement": "residual plasma concentrations", "setting": "[1]; dogs, PO 0.2 mg/kg, quantifiable at the 24-h time point", "value": "declined to below the level of quantitation by the 30-h time point"},
      {"measurement": "AUC (area-under-the-curve)", "setting": "[1]; dogs, PO capsule, mean dose 0.2 mg/kg, fasted, individual dogs (Dog 1-5), 0.2 mg/kg", "value": "2,082.4 h*ng/ml and 2,396.3 h*ng/ml and 1,335.5 h*ng/ml and 863.4 h*ng/ml and 3,051.2 h*ng/ml"},
      {"measurement": "CMax (peak concentration)", "setting": "[1]; [5]", "value": "236.2 ng/mL and 294.3 ng/mL and 165.1 ng/mL and 71.4 ng/mL and 348.5 ng/mL"},
      {"measurement": "TMax", "setting": "[1]; [5]", "value": "4.4 h and 4.9 h and 6.3 h and 6.1 h"},
      {"measurement": "TMax (time to CMax)", "setting": "[1]; dogs, PO, mean dose 0.2 mg/kg, model fit, mean, n = 5, 0.2 mg/kg", "value": 5, "unit": "h"},
      {"measurement": "K01 (first order absorption rate)", "setting": "[1]; [6]", "value": 0.4, "unit": "h⁻¹"},
      {"measurement": "K10 (first order elimination rate)", "setting": "[1]; [6]", "value": 0.2, "unit": "h⁻¹"},
      {"measurement": "TLag (lag time for capsule dissolution and stomach emptying)", "setting": "[1]; [6]", "value": 1.8, "unit": "h"},
      {"measurement": "CL/F (systemic clearance per fraction absorbed)", "setting": "[1]; [7]", "value": "0.0984 L/h/kg and 0.0797 L/h/kg and 0.1558 L/h/kg and 0.2201 L/h/kg and 0.0688 L/h/kg"},
      {"measurement": "K01 (first order absorption rate)", "setting": "[1]; [7]", "value": "0.7 h⁻¹ and 0.5 h⁻¹ and 0.3 h⁻¹ and 0.2 h⁻¹ and 0.6 h⁻¹"},
      {"measurement": "K10 (first order elimination rate)", "setting": "[1]; [7]", "value": "0.2 1/h (4×) and 0.3 1/h"},
      {"measurement": "TLag (lag time for capsule dissolution and stomach emptying)", "setting": "[1]; [7]", "value": "0.9 h and 1.6 h and 1.9 h and 1.8 h and 3.4 h"},
      {"measurement": "V/F (volume of distribution per fraction absorbed)", "setting": "[1]; [7]", "value": "0.5407 L/kg and 0.3267 L/kg and 0.4659 L/kg and 0.9747 L/kg and 0.3612 L/kg"},
      {"measurement": "K01 (first order absorption rate)", "setting": "[1]; [8]", "value": 0.5, "unit": "h⁻¹"},
      {"measurement": "K10 (first order elimination rate)", "setting": "[1]; [8]", "value": 0.2, "unit": "h⁻¹"},
      {"measurement": "TLag (lag time for capsule dissolution and stomach emptying)", "setting": "[1]; dogs, PO, mean dose 0.2 mg/kg, mean, n = 5, 0.2 mg/kg", "value": "2 h and 2.0 h"},
      {"measurement": "time of mean maximum observed plasma concentration", "setting": "[1]; dogs, single oral dose 0.20 mg/kg, post-dosing, observed", "value": 6, "unit": "h"},
      {"measurement": "aPTT versus baseline", "setting": "[2]; IV 0.18 mg/kg, at 5 and 15 min post-injection", "value": "significantly prolonged"},
      {"measurement": "aPTT versus baseline", "setting": "[2]; PO 0.2 mg/kg, 0.2 mg/kg", "value": "not consistently affected; also recorded: did not have a significant effect"}
    ]}
  ]
}
